What all share (format): cell-based
In one experiment the target is T1, NK3 (Homo sapiens, UniProt P29371).
T1 sequence (P29371 1-465): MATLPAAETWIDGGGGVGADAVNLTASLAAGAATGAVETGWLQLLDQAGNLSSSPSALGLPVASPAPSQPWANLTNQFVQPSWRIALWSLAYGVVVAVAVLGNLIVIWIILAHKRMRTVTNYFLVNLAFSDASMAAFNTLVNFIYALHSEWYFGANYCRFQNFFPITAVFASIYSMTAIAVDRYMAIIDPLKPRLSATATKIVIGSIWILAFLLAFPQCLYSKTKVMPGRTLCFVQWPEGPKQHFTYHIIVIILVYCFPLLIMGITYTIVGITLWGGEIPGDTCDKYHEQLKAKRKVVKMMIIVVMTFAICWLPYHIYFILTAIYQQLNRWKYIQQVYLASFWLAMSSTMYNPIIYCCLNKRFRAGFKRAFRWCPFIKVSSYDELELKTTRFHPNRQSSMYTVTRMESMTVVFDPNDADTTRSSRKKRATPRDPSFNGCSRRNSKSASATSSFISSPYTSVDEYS
Put plainly: Signal transduction (ST), intracellular Ca++ (FLIPR), NK3. The conditions noted are these: antagonist, read-out: NK3 pIC50 (converted). The procedure: [The source words this procedure for another target and reports this target under the same test.] (§1) This test evaluates in vitro functional NK1 antagonistic activity. For the measurements of intracellular Ca^++ concentrations the cells were grown on 96-well (black wall/transparent bottom) plates from Costar for 2 days until they reached confluence. The cells were loaded with 2 μM Fluo3 in DMEM containing 0.1% BSA and 2.5 mM probenecid for 1 h at 37° C. They were washed 3× with a Krebs buffer (140 mM NaCl, 1 mM MgCl2×6H2O, 5 mM KCl, 10 mM glucose, 5 mM HEPES; 1.25 mM CaCl2; pH 7.4) containing 2.5 mM probenecid and 0.1% BSA (Ca^++-buffer). The cells were preincubated with a concentration range of antagonists for 20 min at RT and Ca^++-signals after addition of the agonists were measured in a Fluorescence Image Plate Reader (FLIPR from Molecular Devices, Crawley, England). The peak of the Ca^++-transient was considered as the relevant signal and the mean values of corresponding wells were analysed as described below.
(§2) The sigmoidal dose response curves were analysed by computerised curve-fitting, using the GraphPad Program. The EC50-value of a compound is the effective dose showing 50% of maximal effect. For mean curves the response to the agonist with the highest potency was normalised to 100%. For antagonist responses the IC50-value was calculated using non-linear regression.
(§3) The last columns indicate—without being limited thereto—for which action the compounds might be most suitable. Of course, since for some neurokinin receptors no data was determined, it is obvious that these compounds might be attributed to another suitable use.

The target of another experiment is T2, NK2 (Homo sapiens, UniProt P21452).
T2 sequence (P21452 1-398): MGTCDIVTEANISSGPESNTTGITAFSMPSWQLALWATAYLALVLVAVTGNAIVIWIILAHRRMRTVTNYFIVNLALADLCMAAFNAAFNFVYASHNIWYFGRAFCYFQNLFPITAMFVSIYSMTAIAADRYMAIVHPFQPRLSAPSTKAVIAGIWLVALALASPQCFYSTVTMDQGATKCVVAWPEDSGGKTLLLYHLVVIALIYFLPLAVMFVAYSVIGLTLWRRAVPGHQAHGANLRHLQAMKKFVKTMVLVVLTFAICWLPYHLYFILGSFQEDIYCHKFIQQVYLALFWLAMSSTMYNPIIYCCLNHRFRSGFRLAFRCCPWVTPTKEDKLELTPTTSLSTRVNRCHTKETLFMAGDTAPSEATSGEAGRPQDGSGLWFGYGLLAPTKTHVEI
As to the kind of experiment: Signal transduction (ST), intracellular Ca++ (FLIPR), NK2. The conditions noted are these: antagonist, read-out: NK2 pIC50 (converted). The procedure: [The source words this procedure for another target and reports this target under the same test.] as §1, §2, §3

Another experiment deals with NK1 (Homo sapiens, UniProt P25103). As to the kind of experiment: Signal transduction (ST), intracellular Ca++ (FLIPR), functional NK1 antagonistic activity. The following applies: antagonist, read-out: NK1 pIC50 (converted). The procedure:
as §1, §2, §3

Chain of NK1 (P25103 whole entry): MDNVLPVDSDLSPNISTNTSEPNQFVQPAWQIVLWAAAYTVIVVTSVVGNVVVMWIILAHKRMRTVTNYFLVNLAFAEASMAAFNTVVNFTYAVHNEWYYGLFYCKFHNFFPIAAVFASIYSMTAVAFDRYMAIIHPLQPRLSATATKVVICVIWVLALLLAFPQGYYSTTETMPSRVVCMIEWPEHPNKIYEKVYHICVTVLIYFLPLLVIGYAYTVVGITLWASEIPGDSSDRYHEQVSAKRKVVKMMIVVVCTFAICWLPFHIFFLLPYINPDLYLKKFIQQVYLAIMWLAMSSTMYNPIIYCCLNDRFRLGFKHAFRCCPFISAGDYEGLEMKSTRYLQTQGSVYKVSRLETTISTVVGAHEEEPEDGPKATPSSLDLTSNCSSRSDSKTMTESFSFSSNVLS

For the compound `O=C(c1cc(C(F)(F)F)cc(C(F)(F)F)c1)N1CCC(N2CCC3(CC2)CCN(C(CO)c2cccs2)CC3)CC1Cc1ccccc1` (stereo not shown) [Compound 6], the IC50 on NK3 is more than 10 µM; on NK2, 7.76 µM; on NK1, 0.129 µM.
`O=C(c1cc2ccccc2o1)N1CCC2(CC1)CCN([C@H]1CCN(C(=O)c3cc(C(F)(F)F)cc(C(F)(F)F)c3)[C@H](Cc3ccccc3)C1)CC2` [Compound 64]: the figures for the IC50 on NK3, at NK2 and on NK1 were more than 10 µM, more than 10 µM and 0.891 µM, respectively.
On to `O=C(CC12CC3CC(CC(C3)C1)C2)N1CCC2(CC1)CCN([C@H]1CCN(C(=O)c3cc(C(F)(F)F)cc(C(F)(F)F)c3)[C@H](Cc3ccccc3)C1)CC2` [Compound 72], for which the figures for the IC50 on NK3, on NK2 and on NK1 were more than 10 µM, more than 10 µM and 0.324 µM, respectively.
`O=C(C1CCOC1)N1CCCC2(CCCN(C3CCN(C(=O)c4cc(C(F)(F)F)cc(C(F)(F)F)c4)C(Cc4ccccc4)C3)C2)C1` (single isomer, unassigned) [Compound 211]: the IC50 was approximately 10 µM at NK3, 4.57 µM at NK2 and 0.282 µM on NK1.
In the case of `O=C1CC2(CCN1Cc1ccoc1)CCN([C@@H]1CCN(C(=O)c3cc(C(F)(F)F)cc(C(F)(F)F)c3)[C@H](Cc3ccccc3)C1)CC2` [Compound 198], the IC50 on NK3 was more than 10 µM; on NK2 it was 4.79 µM; at NK1, 0.339 µM.
For the compound `O=C(C1CC1)N1CCC2(CC1)CCN(C1CCN(C(=O)c3cc(Cl)cc(Cl)c3)C(Cc3ccccc3)C1)CC2` (stereo not shown) [Compound 155], the IC50 is 6.46 µM at NK2 and 0.158 µM at NK1.
With `CC(C)(C)C(=O)N1CCCC2(CCCN([C@H]3CCN(C(=O)c4cc(C(F)(F)F)cc(C(F)(F)F)c4)[C@H](Cc4ccccc4)C3)C2)C1` (stereo partly shown) [Compound 207], the results for the IC50 at NK3, on NK2 and on NK1 were 5.75 µM, 1.91 µM and 0.589 µM, respectively.
Taken in the same sequence, the figures for `Cc1nnsc1C(=O)N1CCC2(CCN(C[C@H]3CCN(C(=O)c4cc(C(F)(F)F)cc(C(F)(F)F)c4)[C@H](Cc4ccccc4)C3)CC2)CC1` [Compound 183] were 7.41 µM, 7.76 µM and 0.017 µM.
As for `O=C(c1cc(C(F)(F)F)cc(C(F)(F)F)c1)N1CC[C@@H](N2CCC3(CCN(C(=O)C45CC6CC(CC(C6)C4)C5)CC3)CC2)C[C@H]1Cc1ccccc1` [Compound 59], the IC50 on NK3 is 5.89 µM; on NK2, more than 10 µM; at NK1 it was 0.347 µM.
For `O=C(C1CC1)N1CCC2(CC1)CCN([C@H]1CCN(C(=O)c3cc(C(F)(F)F)cc(C(F)(F)F)c3)[C@H](Cc3ccc(Cl)c(Cl)c3)C1)CC2` [Compound 131], in that order: 1.41 µM, 0.776 µM and 0.0174 µM.
In the case of `O=C1CC2(CCN1CC1CC1)CCN(C1CCN(C(=O)c3cc(C(F)(F)F)cc(C(F)(F)F)c3)C(Cc3ccccc3)C1)CC2` (stereo not shown) [Compound 195], the IC50 at NK3 is 1.45 µM; at NK2, approximately 1.41 µM; at NK1 it was 0.0537 µM.
As for `O=C(CC1CCCCC1)N1CCC2(CC1)CCN([C@H]1CCN(C(=O)c3cc(C(F)(F)F)cc(C(F)(F)F)c3)[C@H](Cc3ccccc3)C1)CC2` [Compound 71], the IC50 at NK3 is more than 10 µM; at NK2, 9.77 µM; at NK1, 0.0933 µM.
Taken in the same sequence, the figures for `Cc1ccc(S(=O)(=O)N2CCC3(CCN([C@H]4CCN(C(=O)c5cc(C(F)(F)F)cc(C(F)(F)F)c5)[C@H](Cc5ccccc5)C4)CC3)CC2)cc1` [Compound 105] were 2 µM, 2.45 µM and 0.105 µM.
For `O=C(c1cc(C(F)(F)F)cc(C(F)(F)F)c1)N1CC[C@H](N2CCC3(CC2)CCN(S(=O)(=O)c2cc(Cl)c(Cl)s2)CC3)C[C@H]1Cc1ccccc1` [Compound 96], in that order: approximately 10 µM, 1.26 µM and 0.468 µM.
Turning to `CC1(C)OC(=O)CC1C(=O)N1CCC2(CC1)CCN([C@H]1CCN(C(=O)c3cc(C(F)(F)F)cc(C(F)(F)F)c3)[C@H](Cc3ccc(F)c(F)c3)C1)CC2` (stereo partly shown) [Compound 138], the IC50 on NK3 was more than 10 µM; at NK2, 4.68 µM; on NK1, 0.0178 µM.
For `N#Cc1ccc(S(=O)(=O)N2CCC3(CCN(C4CCN(C(=O)c5cc(C(F)(F)F)cc(C(F)(F)F)c5)C(Cc5ccccc5)C4)CC3)CC2)cc1` (stereo not shown) [Compound 119], in that order: 1.58 µM, 1.07 µM and 0.0661 µM.
For `O=C(c1cc(C(F)(F)F)cc(C(F)(F)F)c1)N1CC[C@H](N2CCC3(CC2)CCN(S(=O)(=O)c2ccc(Cl)cc2)CC3)C[C@H]1Cc1ccccc1` [Compound 108], in that order: 3.98 µM, 2.63 µM and 0.324 µM.
Taken in the same sequence, the figures for `O=C(C1CCOC1)N1CCC2(CC1)CCN([C@H]1CCN(C(=O)c3cc(C(F)(F)F)cc(C(F)(F)F)c3)[C@H](Cc3ccccc3)C1)CC2` (stereo partly shown) [Compound 21] were 2.14 µM, 2.34 µM and 0.0166 µM.
Take `O=C(c1cc(C(F)(F)F)cc(C(F)(F)F)c1)N1CC[C@H](CN2CCC3(CCN(Cc4ccccc4)CC3)CC2)C[C@H]1Cc1ccccc1` [Compound 178]: the IC50 is more than 10 µM on NK3, 4.9 µM on NK2 and 0.437 µM at NK1.
Taken in the same sequence, the figures for `O=C(c1ccc2nonc2c1)N1CCC2(CC1)CCN([C@H]1CCN(C(=O)c3cc(C(F)(F)F)cc(C(F)(F)F)c3)[C@H](Cc3ccccc3)C1)CC2` [Compound 68] were more than 10 µM, 5.62 µM and 0.295 µM.
Consider `CC1(C(=O)N2CCC3(CC2)CCN([C@H]2CCN(C(=O)c4cc(C(F)(F)F)cc(C(F)(F)F)c4)[C@H](Cc4ccccc4)C2)CC3)CC1` [Compound 11], for which the IC50 is 5.37 µM at NK2 and 0.105 µM on NK1.
For `Cc1cc(C)cc(C(=O)N2CCC(N3CCC4(CCN(C(=O)C5CC5)CC4)CC3)CC2Cc2ccccc2)c1` (stereo not shown) [Compound 153], in that order: more than 10 µM and 0.145 µM.
On to `O=C(c1cc(C(F)(F)F)cc(C(F)(F)F)c1)N1CC[C@H](N2CCC3(CC2)CCN(S(=O)(=O)c2ccccc2Cl)CC3)C[C@H]1Cc1ccccc1` [Compound 106], for which the IC50 at NK3 is 0.525 µM; at NK1, 0.0603 µM.
On to `N#Cc1ccccc1S(=O)(=O)N1CCC2(CCN([C@H]3CCN(C(=O)c4cc(C(F)(F)F)cc(C(F)(F)F)c4)[C@H](Cc4ccccc4)C3)CC2)CC1` [Compound 118], for which the IC50 on NK3 was 1.51 µM; on NK1, 0.0309 µM.
Taken in the same sequence, the figures for `O=C(c1cc(C(F)(F)F)cc(C(F)(F)F)c1)N1CC[C@H](N2CCC3(CC2)CCN(S(=O)(=O)c2cc(Cl)sc2Cl)CC3)C[C@H]1Cc1ccccc1` [Compound 97] were approximately 10 µM and 0.0871 µM.
Turning to `O=C(c1cc(C(F)(F)F)cc(C(F)(F)F)c1)N1CC[C@H](N2CCC3(CC2)CCN(S(=O)(=O)c2cc(Cl)ccc2Cl)CC3)C[C@H]1Cc1ccccc1` [Compound 110], the IC50 on NK3 is 5.13 µM; at NK1, 0.174 µM.
Consider `NC(=O)C1(C(=O)N2CCC3(CC2)CCN([C@H]2CCN(C(=O)c4cc(C(F)(F)F)cc(C(F)(F)F)c4)[C@H](Cc4ccccc4)C2)CC3)CC1` [Compound 14], for which the IC50 at NK2 is more than 10 µM; on NK1, 0.0316 µM.

The values above are taken from US7544694B2, “Substituted diaza-spiro-[5.5]-undecane derivatives and their use as neurokinin antagonists” (Janssen Pharmaceutica N.V., priority 2004, dated 2009).
